Test results published in patent US7320890B2, “Soluble steroidal peptides for nucleic acid delivery” (University of Utah Research Foundation, priority 2001, dated 2008).
Where a SMILES comes first, the peptide text is derived from it. Where no end group is shown, it is not given here. The star is where a group is joined. Lithocholoyl = C[C@H](CCC(=O)*)[C@H]1CC[C@H]2[C@@H]3CC[C@@H]4C[C@H](O)CC[C@]4(C)[C@H]3CC[C@]12C

Key:
[1] = test system: CT-26 colon carcinoma cell lines; test: In vitro transfection, luciferase activity; type: cell-based; details: CT-26 cells, controls without carrier conjugate or without plasmid
Procedure: SSP/pLuc and SSP/p2CMVmIL-12 complexes formulated at various N/P ratios in 5% (w/v) glucose were evaluated for their transfection efficiency in CT-26 colon carcinoma cell lines. In the case of luciferase gene controls, cells were lysed after transfection and the relative light units (RLU) and total protein concentration were determined. […] The transfection efficiency increased with the increase in N/P ratios but diminished slightly with ratios 50/1 and above which could possibly be due to cytotoxicity towards CT-26 cells. On visual inspection under light microscope some granulation of cells was found, and cytotoxicity tests indicate that above N/P ratios 50/1 the cell viability is reduced by about 80%, which would account for lower gene expression.
In case of pLuc, CT-26 cells were seeded in 12-well tissue culture plates at 1×10^5 cells per/well in 10% FBS containing RPMI 1640 media. Cells achieved 70% confluency within 24 hours, after which they were transfected with SSP/pDNA complexes prepared at different N/P ratios ranging from 5/1 to 50/1 as described above. […] Luciferase activity was measured in terms of relative light units (RLU) using 96 well plate Luminometer (Dynex Technologies Inc, Chantilly, Va.). The luciferase activity was monitored and integrated over a period of 30 secs. […]

[2] = test system: CT-26 colon adeno-carcinoma cells; test: Cytotoxicity MTT assay; details: SSP alone, amounts equivalent to those used in N/P ratios 20/1
Procedure: (§1) Cytotoxicity of SSP/p2CMVmIL-12 complexes prepared at different N/P ratios were assessed using an MTT assay. CT-26 colon adeno-carcinoma cells were grown and maintained in RPMI 1640 medium (GIBCO-BRL, Gaithersburg, Md.), which was supplemented with 10% fetal bovine serum (FBS), 100 U/ml penicillin, 100 U/ml streptomycin and 50 μg/ml gentamycin (all from Gibco-BRL, Gaithersburg, Md.) at 37° C. and humidified 5% CO2.
(§2) Briefly, CT-26 cell lines were seeded in 96 well plates at 4000 cells/well and incubated for 24 hours. After checking the cell confluency, which was over 80%, SSP/p2CMVmIL-12 complexes prepared at N/P ratios ranging from 5/1 to 100/1 were added to the cells at a dose of 0.15 μg pmIL-12/well. Following 48 hrs of incubation, 25 μl of 5 mg/ml 3-[4,5-dimethylthiazol-2-yl]-2,5-diphenyltetrazolium bromide (MTT, Sigma Chemical Co., St. Louis, Mo.) stock solution in phosphate buffered saline (PBS, Gibco-BRL) was poured into each well reaching a final concentration of 0.5 mg/ml MTT. The plate was then incubated at 37° C. in 5% CO2 for 4 hrs. The medium was removed and 150 μl of dimethyl sulfoxide (DMSO, Aldrich) was added to dissolve the formazan crystals. The plate was read spectrophotometrically at 570 nm in an ELISA plate reader. The relative cell viability was calculated as [Abs]sample/[Abs]control×100. […]

[3] = test system: plasmid DNA; test: Condensation of plasmid DNA (gel electrophoresis); type: physicochemical; details: 4.5% (w/v) glucose, phosphate buffer pH 8.0
Procedure: Various formulations of SSP/p2CMVmIL-12 were prepared as follows: 100 μL aliquots of SSP at various concentrations and pDNA (0.2 mg/ml) were prepared in 4.5% (w/v) glucose to bring the osmolality to 285-295 mOsm, and 1M phosphate buffer was used to bring the pH to 8.0 of both aliquots. SSP/pDNA complexes at various N/P ratios ranging from 0.5/1 (N/P) to 50/1 (N/P) were prepared by rapidly mixing contents of SSP aliquot in pDNA aliquots using a pipettor. N/P ratio was calculated by taking into account 3 nitrogens for each arginine in SSP, thereby resulting in 18 nitrogens for each SSP molecule. The SSP/pDNA complexes were incubated for 15 minutes at room temperature before electrophoresis.

[4] = mouse, CT-26 colon adeno-carcinoma cells
Procedure: as §1, §2

[5] = test system: CT-26 cells; test: Membrane permeabilization study (ethidium bromide staining, flow cytometry); type: cell-based; details: for levels of staining: pH 7.4; for cells stained (ethidium bromide fluorescence): 10 μM SSP
Procedure: Membrane permeabilization studies were performed to find out whether SSP was able to form pores through plasma membranes and whether this phenomenon had any pH dependence or not. SSP prepared according to Example 1 was used at micromolar concentrations on cells preincubated with ethidium bromide, which intercalates between the strands of dsDNA and causes it to fluoresce. Ethidium bromide on its own is a poor membrane permeant, however, if the membranes are permeabilized, it would rapidly cross the cytoplasm, accumulate in the nucleus, and bind to the cellular DNA. Its fluorescent property would allow us to thus find the extent to which permeabilization via SSP occurred.
The membrane permeabilization activity of SSP was determined using flow cytometry. CT-26 cells were grown overnight and at 70-80% confluency were trypsinized and centrifuged. Cells were washed several times in 1×PBS (pH 7.4) and eventually resuspended in it to make cell suspensions of 1×10^6 cells/ml. One microliter of ethidium bromide (10 mg/ml) was mixed in 0.5 ml of cell suspension aliquots and stored at 4° C. 15 minutes before use. The pH of cell suspensions was adjusted to values 5,6,7, or 8 using either 1N NaOH or 1N HCl solutions 5 minutes before starting the experiment. SSP was finally used to permeabilize the membranes at the same final concentration for pH studies or at different concentrations at pH 7.4. Temperature effects at 4° C. and 37° C. were also studied to find any temperature dependent differences in permeabilization. After 5 and 15 minutes incubation, the cell fluorescence intensity was measured using FACScan Analyzer (Becton Dickinson, Sunnyvale, Calif.), which has a single 15-mW argon (488 nm) laser light source. A 585 nm long pass filter was used to collect the emitted red fluorescence. The forward scatter, side scatter, and ethidium bromide fluorescence were simultaneously recorded with 10,000 cells at 300 events per second. The results were later analyzed using cell quest software provided by the same manufacturer. Histogram statistics were used to quantitatively determine the extent of permeabilization.

## HHYRRRHKSRRRLHH [Peptide sequence, reference compound]
[1]
  transfection / gene expression (in words): not effective

## CC(C)C[C@H](NC(=O)[C@H](CCCNC(=N)N)NC(=O)[C@H](CCCNC(=N)N)NC(=O)[C@H](CCCNC(=N)N)NC(=O)[C@H](CO)NC(=O)[C@H](CCCCNC(=O)CC[C@@H](C)[C@H]1CC[C@H]2[C@@H]3CC[C@@H]4C[C@H](O)CC[C@]4(C)[C@H]3CC[C@]12C)NC(=O)[C@H](Cc1c[nH]cn1)NC(=O)[C@H](CCCNC(=N)N)NC(=O)[C@H](CCCNC(=N)N)NC(=O)[C@H](CCCNC(=N)N)NC(=O)[C@H](Cc1ccc(O)cc1)NC(=O)[C@H](Cc1c[nH]cn1)NC(=O)[C@@H](N)Cc1c[nH]cn1)C(=O)N[C@@H](Cc1c[nH]cn1)C(=O)N[C@@H](Cc1c[nH]cn1)C(N)=O [SSP] (H-HHYRRRHK(Lithocholoyl)SRRRLHH-NH2; N-terminus and C-terminus assumed)
[2]
  cytotoxicity (in words): non-toxic
[1]
  transfection / gene expression (in words): did not give any gene expression
[3]
  N/P ratio at which pDNA is condensed completely: 3/1
[4]
  viability at 48 h: ~75%
[5]; 5 μM of SSP or above
  levels of staining: > 85%
[5]; 10 μM SSP and above
  levels of staining: ~100%
[5]; pH 5 and 6, within 5 minutes
  cells stained (ethidium bromide fluorescence): over 97%
[5]; pH 5 and 6, within 5 minutes, listed as soluble steroidal peptide
  cells stained (ethidium bromide fluorescence): less than 25%
[5]; pHs above the pKa of the imidazole ring of histidine (pKa=6.1), pH 7 and 8
  cells stained (ethidium bromide fluorescence): < 25%
